# Assay results published in article PMC12662929, “MR2938 relieves DSS-induced colitis in mice through inhibiting NF-κB signaling and improving epithelial barrier” (Marine Life Science & Technology, 2025).
# What was measured:
# [1] = test system: DSS-induced colitis C57BL/6 mice; assay: Acute DSS-induced murine colitis model; type: in vivo, mouse; details: for body weight: MR2938 50 or 100 mg/kg or 5-ASA 100 mg/kg, oral
# Description: After 1 week of acclimation, the C57BL/6 mice were randomly divided into the following groups (n = 6/group): control group, model group (DSS), DSS + 5-aminosalicylic acid (5-ASA, positive group, 100 mg/kg), DSS + MR2938 (100 mg/kg) and DSS + MR2938 (50 mg/kg). Colitis was induced by administration of 3% DSS drinking water for 5 consecutive days. Water consumption was monitored daily. At the same time, the mice in each group were given the corresponding agents: 5-ASA (100 mg/kg) and MR2938 (50 mg/kg or 100 mg/kg). The dosages of 5-ASA and MR2938 were adopted based on previous reports and our pilot trial. MR2938 or 5-ASA was dissolved in a mixture of saline and DMSO (95:5) to provide the desired concentrations.
# Changes in bodyweight were assessed daily over the 9-day experimental period. On the last day of the experiment, mice were sacrificed, and the entire colon was excised. Colon length was measured and gently washed with physiological saline. Then two pieces with 0.5 cm in length of the distal section were used for histological assessment and immunofluorescence staining. The remaining colon tissue samples were used to determine MPO activity and the concentrations of cytokines.
# Distal colons were harvested, fixed in 4% paraformaldehyde, and embedded in paraffin. Five-μm-thick tissue sections were stained with hematoxylin and eosin (HE) for light microscopic examination using a DP73 light microscope (Olympus, Tokyo, Japan). Colonic mucosa damage score was assessed as previously described. To count colonic goblet cells, fixed colonic tissues were also stained in Alcian blue for 10–15 min and dehydrated with 100% alcohol and xylene, followed by image acquisition on a microscope.
# The serum was obtained from the collected blood samples through centrifugation at 3500 g for 15 min at 4 °C. A portion of frozen colon samples was homogenized with RIPA lysis buffer (Solarbio, Beijing, China) to extract total proteins. The homogenate was centrifuged at 12,000 × g at 4 °C for 15 min. The protein contents were quantified using a bicinchoninic acid (BCA) protein assay kit (Solarbio, Beijing, China) according to the manufacturer’s instructions. The concentrations of proinflammatory cytokines IL-1β, IL-6, and TNF-α in the serum and colon tissue were measured by ELISA (Jingmei Biotech, China) according to the manufacturers’ recommendations. MPO activity was measured using a myeloperoxidase assay kit (Jingmei Biotech, China).
# (§1) Total RNAs of colon tissues were extracted using tissue RNA kit (Omega Biotek, China) following the manufacturer’s protocol. cDNA was obtained from RNA samples using ReverTra Ace qPCR RT Master Mix with gDNA Remover (TOYOBO, Japan). Quantitative real-time PCR was performed by Applied Biosystems® QuantStudio Q5 instrument (Thermo, USA) with SYBR qPCR Master Mix (Vazyme, China). The relative gene expression was measured and normalized to β-actin expression using 2^−ΔΔCt method.
# (§2) For immunofluorescence staining, the frozen colon slides or cells were fixed in 4% paraformaldehyde, permeabilized with 0.1% Triton X-100, blocked non-specific proteins in 5% BSA/PBS for 1 h, and incubated overnight at 4 °C with Occludin, ZO-1 or p65 primary antibodies. The slides were then washed with phosphate buffer (PBS) and incubated with Dylight 488 labeling secondary antibody for 1 h at room temperature. Finally, the colon slides were stained with DAPI for 10 min, and then imaged and captured using ECHO microscope.
# [2] = test system: NF-κB signaling in Raw264.7 cells; assay: LPS-induced inflammation / NF-κB signaling in Raw264.7 macrophages; type: cell-based
# Description: Raw264.7 cells and Caco-2 cells were obtained from the Cell Bank of the Chinese Academy of Sciences (Shanghai, China) and cultured in high-glucose DMEM medium supplemented with 10% fetal bovine serum (FBS) at 37 ℃ in a 5% CO2 atmosphere. Raw264.7 cells were seeded and incubated in six-well plates (8 × 10^5 cells/well) overnight, and then treated with different concentrations of MR2938 for 2 h. Then Raw264.7 cells were activated by lipopolysaccharide (LPS, 100 ng/mL, Sigma-Aldrich Co., Shanghai, CN) for 2 h or 6 h for transcription or protein level analysis.
# as §1, §2
# Total proteins were extracted with RIPA lysis buffer. After determining the protein concentration by the BCA assay kit, an equal amount of protein was subjected to SDS-PAGE and electro-transferred to a PVDF membrane. The membrane was immune detected with specific antibodies overnight at 4 °C. Proteins were quantified by Image J software. The target antibodies against p65, phosphorylated p65, IκBα, p-IκBα, TLR4, NLRP3, caspase-1, IL-1β, and β-actin were purchased from Proteintech or Cell Signaling Technology.
# [3] = In vivo PK study in SD rats; details: plasma, rat
# Description: MR2938 was synthesized in-house following previously reported procedure (Lv et al. [2023]), and confirmed by NMR and HPLC chromatography (purity > 95%). To detect the pharmacokinetic characters of MR2938 in the plasma, the SD rats were orally and intravenous (i.v.) administered with MR2938 at a dose of 10 mg/kg and 3 mg/kg, respectively. The vehicle consisted of 10% DMSO, 30% saline, and 60% PEG400. Plasma samples were collected at 5 min, 15 min, 30 min and 1 h, 2 h, 4 h, 6 h, 8 h, 12 h, and 24 h after administration. After analyzing the concentration of MR2938 via LC–MS, the values of Cmax, Tmax, T1/2, Cl, AUClast, and AUCInf were calculated (Hu et al. [2018]). The bioavailability of MR2938 from the p.o. was calculated by comparing the area under the concentration–time curve (AUCInf) for the […] dose and that for the i.v. dose.
# [4] = Brain permeability in mice after i.p. administration; type: in vivo, mouse; details: n=3
# Description: Table S2. Concentration of MR2938 in brain after its i.p. administration (6.5 mg/kg)
# NO production = test system: NO production; set-up: method as in Lv et al. 2023; details: ref Lv et al. 2023; cited from earlier work
# [5] = test system: proinflammatory cytokines mRNA; set-up: method as in Lv et al. 2023; details: 2.5 μmol/L; ref Lv et al. 2023; cited from earlier work
# Caco-2 cells = assay: LPS-induced tight junction disruption in Caco-2 cells (immunofluorescence); type: cell-based
# Description: Caco-2 cells were seeded and incubated in 24-well plates (1 × 10^5 cells/well) for 48 h and treated with 10 μmol/L of MR2938 for 2 h. Then 100 ng/mL of LPS was added for 24 h to induce tight function disruption.
# as §2
# AChE = test system: AChE; set-up: method as in Lv et al. 2023; details: ref Lv et al. 2023; cited from earlier work
smiles,measurement,setting,value
"Nc1ccc(O)c(C(=O)O)c1 [5-ASA, 5-aminosalicylic acid, reference compound]",body weight,[1]; 3% DSS,marked improvement
"O=C(c1ccc(Nc2nccc(-c3cc4ccccc4s3)n2)cc1)N1CCC(N2CCCC2)CC1 [IKK16, reference compound]",LPS-elevated expression level of NLRP3,"[2]; western blot, NF-κB pathway blocked",obviously decreased
COc1cc(OC)c2c(=O)[nH]c(-c3ccc(N4CCN(C)CC4)cc3)nc2c1 [MR2938],AUC(0-inf),"[3]; iv, 3 mg/kg i.v., mean n = 3",1070 ng·h/mL
same,AUC(0-t),"[3]; iv, 3 mg/kg i.v., mean n = 3",1060 ng·h/mL
same,Cmax,"[3]; iv, 3 mg/kg i.v., mean n = 3",1030 ng/mL
same,half-life,"[3]; iv, 3 mg/kg i.v., mean n = 3",2.25 h
same,clearance,"[3]; iv, 3 mg/kg i.v., mean n = 3, read-out: Cl (plasma clearance)",47.2 mL/min/kg
same,bioavailability,"[3]; oral, 10 mg/kg p.o. vs 3 mg/kg i.v., from AUCInf, read-out: F (oral bioavailability)",59%
same,AUC(0-inf),"[3]; po, 10 mg/kg p.o., mean n = 3",2110 ng·h/mL
same,AUC(0-t),"[3]; po, 10 mg/kg p.o., mean n = 3",2080 ng·h/mL
same,Cmax,"[3]; po, 10 mg/kg p.o., mean n = 3",592 ng/mL
same,Tmax,"[3]; po, 10 mg/kg p.o., mean n = 3",0.667 h
same,half-life,"[3]; po, 10 mg/kg p.o., mean n = 3",2.87 h
same,Amount in brain,[4]; i.p. 6.5 mg/kg (145 μg),236.7 ng
same,Concentration in brain,[4]; i.p. 6.5 mg/kg,222.07 ng/g
same,IC50,NO production,3.29 µM
same,NF-κB fluorescence intensity / subcellular location,"[2]; 10 μM pre-treatment, LPS activation, immunofluorescence",dropped and was mostly accumulated in the cytoplasm
same,total p65,"[2]; LPS stimulated, western blot",slightly downregulated
same,phosphorylation of IκBα and p65,"[2]; LPS stimulated, western blot, dose-dependent",effectively inhibited
same,expression of TLR4,"[2]; LPS stimulated, decrease did not correlate to concentration",reduced
same,"expressions of IL-1β, NLRP3 and caspase-1 (mRNA and protein)","[2]; qPCR and western blot, vs LPS stimulated",significantly reduced
same,mRNA level of proinflammatory cytokines,[5],significantly decreased
same,expression of Occludin and ZO-1,"Caco-2 cells; 10 μmol/L, LPS 100 ng/mL stimulated",able to rescue expression levels
same,Occludin and ZO-1 protein levels,"Caco-2 cells; MR2938 alone, without LPS",little changes
same,IC50,AChE,5.04 µM
same,"Occludin and ZO-1 proteins in colon (immunofluorescence), comparison with 5-ASA",[1]; 100 mg/kg,as effective as 5-ASA
same,"mRNA levels of Occludin, ZO-1 and claudin-1 in colon","[1]; 100 mg/kg vs colitis group, no statistical difference",upregulated
same,colon length (shortening),"[1]; 3% DSS, 100 mg/kg oral, similar to control group, significantly longer than 5-ASA group",greatly relieved
same,body weight,[1]; 3% DSS,marked improvement
same,"inflammatory cell infiltration, mucosal damage and overall colonic damage score (HE histology)","[1]; 3% DSS, oral administration",obvious attenuation
same,concentration of MPO in colon,[1]; DSS-induced,slight decrease
same,concentration of MPO in serum,[1]; DSS-induced,slight decrease
same,colonic level of IL-1β,"[1]; ELISA, colon tissue",decreased
same,colonic level of TNF-α,"[1]; ELISA, colon tissue",decreased
same,IL-1β in mouse serum,"[1]; ELISA, 50 mg/kg and 100 mg/kg",significant decrease
same,TNF-α in mouse serum,"[1]; ELISA, 50 mg/kg and 100 mg/kg",significant decrease
same,serum IL-6 level,"[1]; ELISA, 50 mg/kg group compared with 100 mg/kg group",no statistical difference between the two groups
same,gene transcription of IL-1β in colon,[1]; RT-qPCR,noticeably inhibited
same,gene transcription of TNF-α in colon,[1]; RT-qPCR,noticeably inhibited
same,transcription of IL-6 in colon,"[1]; RT-qPCR, 100 mg/kg, compared with 5-ASA",more favorable effects on the transcription of IL-6 than 5-ASA
same,GPx in colon,[1]; colitis group vs treatment group,no significant difference
same,Occludin and ZO-1 proteins in colon (immunofluorescence),"[1]; dose-dependent, 50 and 100 mg/kg",partially alleviate the depletion
same,mucin-secreting goblet cells in colonic epithelia (Alcian blue staining),[1]; similar to control group,rescued the differentiation of mucin-producing goblet cells
same,organ indexes of mice,[1]; treatment group vs control groups,no obvious differences
same,production of MDA in colon,[1]; vs DSS group,significantly suppressed
